Each structure is given as a SMILES string.

This assay deals with T1, EphA2 LBD (Homo sapiens, UniProt P29317).
T1 construct: fused on or other part: Minimal biotinylation for capture on Neutravidin (doxazosin run); amine coupling for the other compounds
Kind of assay: Surface Plasmon Resonance binding analysis. The following applies: SPR, recombinant LBD of EphA2; read-out: dissociation constant (KD). On the procedure:
Binding analysis was carried out using standard biosensor chips and the […] Dual Channel SPR System (Reichert Life Sciences, Depew, N.Y.). The extracellular domain (ECD) of EphA2 was coupled to the chip by standard amine coupling using 1-ethyl-3-(3-dimethylaminopropyl) carbodiimide (EDC) and N-hydroxysuccinimide (NHS), followed by ethanolamine wash. In the case of doxazosin, Neutravidin was coupled to the chip, followed by ethanolamine wash and addition of minimally biotinylated EphA2 ECD to properly orient the protein. Different concentrations of dobutamine, labetalol, and doxazosin in running buffer (PBS, 0.05% Tween-20, 1% DMSO) were flown over the chip at a rate of […] and binding analyzed in real-time. After approximately 60 seconds, running buffer was flown over the chip to dissociate the compounds from the coupled protein (downward slope of curve). Binding data were analyzed and KD values determined using Clamp software (BioLogic Software Pty Ltd).

T1 sequence (P29317 28-206 limits assumed): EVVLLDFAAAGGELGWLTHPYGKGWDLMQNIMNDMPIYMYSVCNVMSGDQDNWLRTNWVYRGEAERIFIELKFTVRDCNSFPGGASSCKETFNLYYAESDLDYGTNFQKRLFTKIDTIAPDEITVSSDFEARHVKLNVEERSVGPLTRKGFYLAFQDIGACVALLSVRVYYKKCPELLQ

Turning to `CC(CCc1ccc(O)cc1)NCCc1ccc(O)c(O)c1` (centres unmarked) [dobutamine], the Kd is 1500 µM.

Take `CC(CCc1ccccc1)NCC(O)c1ccc(O)c(C(N)=O)c1` (centres unmarked) [labetalol]: the Kd was 440 µM.

These data come from patent US11814372B2, “Agonists of EPHA and their uses” (CASE WESTERN RESERVE UNIVERSITY, priority 2017, dated 2023).
